Source: ChEMBL document CHEMBL3045777, “Response of selected horseweed (Conyza canadensis (L.) Cronq.) populations to glyphosate” (2004)

Assays:
Erigeron canadensis [1] = assay: Herbicidal activity against compound-resistant Conyza canadensis (horseweed) isolate 2 under greenhouse condition at 9 kg ae/ha measured 7 days post treatment relative to control; format: functional
Erigeron canadensis [2] = assay: Herbicidal activity against compound-resistant Conyza canadensis (horseweed) isolate 2 under greenhouse condition at 0.84 kg ae/ha measured 7 days post treatment relative to control; format: functional
Erigeron canadensis [3] = assay: Herbicidal activity against compound-resistant Conyza canadensis (horseweed) isolate 2 under greenhouse condition at 0.45 kg ae/ha measured 7 days post treatment relative to control; format: functional
Erigeron canadensis [4] = assay: Herbicidal activity against Conyza canadensis (horseweed) under greenhouse condition at 0.05 kg ae/ha measured 21 days post treatment relative to control; format: functional
Erigeron canadensis [5] = assay: Herbicidal activity against Conyza canadensis (horseweed) under greenhouse condition at 0.05 kg ae/ha measured 7 days post treatment relative to control; format: functional
Erigeron canadensis [6] = assay: Herbicidal activity against compound-resistant Conyza canadensis (horseweed) isolate 2 under greenhouse condition at 9 kg ae/ha measured 21 days post treatment relative to control; format: functional
Erigeron canadensis [7] = assay: Herbicidal activity against compound-resistant Conyza canadensis (horseweed) isolate 2 under greenhouse condition at 0.45 kg ae/ha measured 21 days post treatment relative to control; format: functional
Erigeron canadensis [8] = assay: Herbicidal activity against compound-sensitive Conyza canadensis (horseweed) under greenhouse condition at 3.36 kg ae/ha measured 7 days post treatment relative to control; format: functional
Erigeron canadensis [9] = assay: Herbicidal activity against compound-sensitive Conyza canadensis (horseweed) under greenhouse condition at 1.25 kg ae/ha measured 7 days post treatment relative to control; format: functional
Erigeron canadensis [10] = assay: Herbicidal activity against compound-resistant Conyza canadensis (horseweed) isolate 1 under greenhouse condition at 9 kg ae/ha measured 21 days post treatment relative to control; format: functional
Erigeron canadensis [11] = assay: Herbicidal activity against compound-resistant Conyza canadensis (horseweed) isolate 1 under greenhouse condition at 1.68 kg ae/ha measured 21 days post treatment relative to control; format: functional
Erigeron canadensis [12] = assay: Herbicidal activity against compound-resistant Conyza canadensis (horseweed) isolate 1 under greenhouse condition at 0.84 kg ae/ha measured 21 days post treatment relative to control; format: functional
Erigeron canadensis [13] = assay: Herbicidal activity against compound-resistant Conyza canadensis (horseweed) isolate 1 under greenhouse condition at 0.45 kg ae/ha measured 21 days post treatment relative to control; format: functional
Erigeron canadensis [14] = assay: Herbicidal activity against compound-sensitive Conyza canadensis (horseweed) under greenhouse condition at 0.45 kg ae/ha measured 21 days post treatment relative to control; format: functional
Erigeron canadensis [15] = assay: Herbicidal activity against compound-resistant Conyza canadensis (horseweed) isolate 1 under greenhouse condition at 3.36 kg ae/ha measured 14 days post treatment relative to control; format: functional
Erigeron canadensis [16] = assay: Herbicidal activity against compound-resistant Conyza canadensis (horseweed) isolate 1 under greenhouse condition at 1.25 kg ae/ha measured 14 days post treatment relative to control; format: functional
Erigeron canadensis [17] = assay: Herbicidal activity against compound-resistant Conyza canadensis (horseweed) isolate 1 under greenhouse condition at 9 kg ae/ha measured 7 days post treatment relative to control; format: functional
Erigeron canadensis [18] = assay: Herbicidal activity against compound-resistant Conyza canadensis (horseweed) isolate 1 under greenhouse condition at 1.68 kg ae/ha measured 7 days post treatment relative to control; format: functional
Erigeron canadensis [19] = assay: Herbicidal activity against compound-resistant Conyza canadensis (horseweed) isolate 1 under greenhouse condition at 0.84 kg ae/ha measured 7 days post treatment relative to control; format: functional
Erigeron canadensis [20] = assay: Herbicidal activity against compound-resistant Conyza canadensis (horseweed) isolate 1 under greenhouse condition at 0.45 kg ae/ha measured 7 days post treatment relative to control; format: functional
Erigeron canadensis [21] = assay: Herbicidal activity against compound-sensitive Conyza canadensis (horseweed) under greenhouse condition at 2.52 kg ae/ha measured 14 days post treatment relative to control; format: functional
Erigeron canadensis [22] = assay: Herbicidal activity against compound-sensitive Conyza canadensis (horseweed) under greenhouse condition at 1.68 kg ae/ha measured 14 days post treatment relative to control; format: functional
Erigeron canadensis [23] = assay: Herbicidal activity against compound-sensitive Conyza canadensis (horseweed) under greenhouse condition at 1.25 kg ae/ha measured 14 days post treatment relative to control; format: functional
Erigeron canadensis [24] = assay: Herbicidal activity against compound-resistant Conyza canadensis (horseweed) isolate 1 under greenhouse condition at 1.68 kg ae/ha measured 14 days post treatment relative to control; format: functional
Erigeron canadensis [25] = assay: Herbicidal activity against compound-sensitive Conyza canadensis (horseweed) under greenhouse condition at 2.52 kg ae/ha measured 21 days post treatment relative to control; format: functional
Erigeron canadensis [26] = assay: Herbicidal activity against compound-sensitive Conyza canadensis (horseweed) under greenhouse condition assessed as fresh weight at 3.36 kg ae/ha measured 21 days post treatment relative to untreated control
Erigeron canadensis [27] = assay: Herbicidal activity against compound-sensitive Conyza canadensis (horseweed) under greenhouse condition assessed as fresh weight at 1.68 kg ae/ha measured 21 days post treatment relative to untreated control
Erigeron canadensis [28] = assay: Herbicidal activity against compound-sensitive Conyza canadensis (horseweed) under greenhouse condition assessed as fresh weight at 0.84 kg ae/ha measured 21 days post treatment relative to untreated control
Erigeron canadensis [29] = assay: Herbicidal activity against compound-sensitive Conyza canadensis (horseweed) under greenhouse condition assessed as fresh weight at 0.45 kg ae/ha measured 21 days post treatment relative to untreated control
Erigeron canadensis [30] = assay: Herbicidal activity against compound-resistant Conyza canadensis (horseweed) isolate 2 under greenhouse condition assessed as fresh weight at 9 kg ae/ha measured 21 days post treatment relative to untreated control
Erigeron canadensis [31] = assay: Herbicidal activity against compound-resistant Conyza canadensis (horseweed) isolate 2 under greenhouse condition assessed as fresh weight at 2.52 kg ae/ha measured 21 days post treatment relative to untreated control
Erigeron canadensis [32] = assay: Herbicidal activity against compound-resistant Conyza canadensis (horseweed) isolate 1 under greenhouse condition assessed as fresh weight at 3.36 kg ae/ha measured 21 days post treatment relative to untreated control
Erigeron canadensis [33] = assay: Herbicidal activity against compound-resistant Conyza canadensis (horseweed) isolate 1 under greenhouse condition assessed as fresh weight at 1.68 kg ae/ha measured 21 days post treatment relative to untreated control
Erigeron canadensis [34] = assay: Herbicidal activity against compound-resistant Conyza canadensis (horseweed) isolate 2 under greenhouse condition assessed as fresh weight at 1.25 kg ae/ha measured 21 days post treatment relative to untreated control
Erigeron canadensis [35] = assay: Herbicidal activity against compound-resistant Conyza canadensis (horseweed) isolate 2 under greenhouse condition assessed as fresh weight at 0.84 kg ae/ha measured 21 days post treatment relative to untreated control
Erigeron canadensis [36] = assay: Herbicidal activity against compound-resistant Conyza canadensis (horseweed) isolate 1 under greenhouse condition assessed as fresh weight at 1.25 kg ae/ha measured 21 days post treatment relative to untreated control

SMILES: O=C(O)CNCP(=O)(O)O [GLYPHOSATE]
- Activity (Erigeron canadensis [1]): 73%
- Activity (Erigeron canadensis [2]): 23%
- Activity (Erigeron canadensis [3]): 13%
- Activity (Erigeron canadensis [4]): 26%
- Activity (Erigeron canadensis [5]): 14%
- Activity (Erigeron canadensis [6]): 89%
- Activity (Erigeron canadensis [7]): 20%
- Activity (Erigeron canadensis [8]): 85%
- Activity (Erigeron canadensis [9]): 60%
- Activity (Erigeron canadensis [10]): 80%
- Activity (Erigeron canadensis [11]): 43%
- Activity (Erigeron canadensis [12]): 11%
- Activity (Erigeron canadensis [13]): 11%
- Activity (Erigeron canadensis [14]): 74%
- Activity (Erigeron canadensis [15]): 58%
- Activity (Erigeron canadensis [16]): 18%
- Activity (Erigeron canadensis [17]): 80%
- Activity (Erigeron canadensis [18]): 40%
- Activity (Erigeron canadensis [19]): 20%
- Activity (Erigeron canadensis [20]): 10%
- Activity (Erigeron canadensis [21]): 99%
- Activity (Erigeron canadensis [22]): 98%
- Activity (Erigeron canadensis [23]): 92%
- Activity (Erigeron canadensis [24]): 40%
- Activity (Erigeron canadensis [25]): 99%
- level, % of control (Erigeron canadensis [26]): 6%
- level, % of control (Erigeron canadensis [27]): 1%
- level, % of control (Erigeron canadensis [28]): 27%
- level, % of control (Erigeron canadensis [29]): 30%
- level, % of control (Erigeron canadensis [30]): 12%
- level, % of control (Erigeron canadensis [31]): 24%
- level, % of control (Erigeron canadensis [32]): 7%
- level, % of control (Erigeron canadensis [33]): 36%
- level, % of control (Erigeron canadensis [34]): 73%
- level, % of control (Erigeron canadensis [35]): 86%
- level, % of control (Erigeron canadensis [36]): 88%
